Data on two compounds can be found in US20190255019A1, “NOVEL DOSAGE REGIMEN” (Biogen MA Inc., priority 2016, published 2019).

Where two headings read alike, the source gives them in different places.

For series [1] the following is noted: cited from earlier work.
In a further series the target is Human Nav1.7 (Homo sapiens, UniProt Q15858). In words: In vitro assay quantifying block of hNav1.7 at mid point inactivation, read at free plasma Cmax. In kind it is biochemical. The conditions noted are these: at free plasma Cmax of 200 mg bid. From the text: In Table 1, free plasma CMax exposures of Example 1 obtained from modelling different dosing regimens were used to quantify the resulting amount of block at the primary target hNaV1.7. […] Doses of marketed drugs used in trigeminal neuralgia were compared using the same paradigm.

The next series relates to trigeminal neuralgia. The conditions noted are these: 200 mg bid, TN; cited from earlier work.

Sequence of Human Nav1.7 (Q15858 whole entry): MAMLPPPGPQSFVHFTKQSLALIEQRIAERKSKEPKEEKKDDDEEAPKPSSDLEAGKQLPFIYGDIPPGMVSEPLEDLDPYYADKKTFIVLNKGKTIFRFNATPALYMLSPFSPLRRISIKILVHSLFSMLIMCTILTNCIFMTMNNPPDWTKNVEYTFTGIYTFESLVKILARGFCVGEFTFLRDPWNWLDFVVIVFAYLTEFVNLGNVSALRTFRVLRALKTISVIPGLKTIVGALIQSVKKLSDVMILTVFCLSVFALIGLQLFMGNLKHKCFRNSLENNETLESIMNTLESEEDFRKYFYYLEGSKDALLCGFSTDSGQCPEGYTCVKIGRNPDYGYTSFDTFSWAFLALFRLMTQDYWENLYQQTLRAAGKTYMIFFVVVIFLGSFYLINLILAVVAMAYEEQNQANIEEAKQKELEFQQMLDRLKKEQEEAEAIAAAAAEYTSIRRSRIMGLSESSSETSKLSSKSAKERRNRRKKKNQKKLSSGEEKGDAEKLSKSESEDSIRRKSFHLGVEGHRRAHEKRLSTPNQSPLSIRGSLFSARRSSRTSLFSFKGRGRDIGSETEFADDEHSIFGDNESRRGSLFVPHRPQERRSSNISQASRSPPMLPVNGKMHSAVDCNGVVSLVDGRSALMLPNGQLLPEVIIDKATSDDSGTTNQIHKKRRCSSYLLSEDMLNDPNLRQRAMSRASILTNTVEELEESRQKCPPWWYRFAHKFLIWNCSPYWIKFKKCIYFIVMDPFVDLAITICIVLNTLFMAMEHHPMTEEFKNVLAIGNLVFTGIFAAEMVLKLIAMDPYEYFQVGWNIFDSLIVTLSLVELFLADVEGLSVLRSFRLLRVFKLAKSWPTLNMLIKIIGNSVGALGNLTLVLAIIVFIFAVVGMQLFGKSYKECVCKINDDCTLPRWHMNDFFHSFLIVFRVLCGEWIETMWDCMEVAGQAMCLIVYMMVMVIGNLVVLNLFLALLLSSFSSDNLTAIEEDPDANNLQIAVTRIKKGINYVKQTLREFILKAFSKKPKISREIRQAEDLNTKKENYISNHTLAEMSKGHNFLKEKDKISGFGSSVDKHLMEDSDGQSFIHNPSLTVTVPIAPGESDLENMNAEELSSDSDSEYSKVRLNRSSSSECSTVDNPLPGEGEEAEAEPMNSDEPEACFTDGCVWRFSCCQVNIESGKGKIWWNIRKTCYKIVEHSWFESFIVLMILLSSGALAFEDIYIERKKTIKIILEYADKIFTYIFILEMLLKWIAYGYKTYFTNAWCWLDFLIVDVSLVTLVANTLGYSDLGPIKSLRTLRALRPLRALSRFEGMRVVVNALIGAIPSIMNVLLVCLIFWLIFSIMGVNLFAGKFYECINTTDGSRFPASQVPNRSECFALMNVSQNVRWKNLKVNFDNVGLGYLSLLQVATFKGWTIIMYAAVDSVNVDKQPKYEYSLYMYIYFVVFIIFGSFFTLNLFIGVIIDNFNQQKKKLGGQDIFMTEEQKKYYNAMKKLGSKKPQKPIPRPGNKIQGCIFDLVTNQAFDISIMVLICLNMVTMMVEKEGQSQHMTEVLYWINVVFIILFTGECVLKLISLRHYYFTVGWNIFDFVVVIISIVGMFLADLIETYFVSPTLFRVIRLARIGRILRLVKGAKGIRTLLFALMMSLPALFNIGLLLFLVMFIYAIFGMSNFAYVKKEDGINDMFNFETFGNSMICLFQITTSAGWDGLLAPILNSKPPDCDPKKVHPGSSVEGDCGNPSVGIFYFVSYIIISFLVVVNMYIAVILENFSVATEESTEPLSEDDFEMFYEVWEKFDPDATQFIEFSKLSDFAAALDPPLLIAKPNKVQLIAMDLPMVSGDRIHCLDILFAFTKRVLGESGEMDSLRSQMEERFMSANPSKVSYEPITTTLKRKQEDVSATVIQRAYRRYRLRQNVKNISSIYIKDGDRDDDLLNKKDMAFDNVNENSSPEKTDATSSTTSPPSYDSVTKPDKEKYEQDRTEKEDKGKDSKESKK

In the case of `NC(=O)N1c2ccccc2C=Cc2ccccc21` [Carbamazepine], in series [1] (Carbamazepine 200 mg qid), the “Cmax Free plasma” value is 4 to 12 µM and the Free fraction is recorded as 24%.

Turning to `Nc1nnc(-c2cccc(Cl)c2Cl)c(N)n1` [Lamotrigine], in series [1] (Lamotrigine 200 mg bid), the “Cmax Free plasma” value was 5.8 µM and the Free fraction was 44%. For the same compound, the “Human Nav1.7 % Inhibition” value at Human Nav1.7 amounted to 6%. In addition, the Clinical efficacy result with trigeminal neuralgia is reported as “NO EFFICACY”.
